Among the data in patent US10703757B2, “Compounds and methods for CDK8 modulation and indications therefor” (Plexxikon Inc., priority 2016, dated 2020) are IC50 values, retold here.

The subject of assay [1] is CDK8 (phosphorylation of STAT1 at serine 727 in A549 cells). Description: Cell based Phospho-STAT1 assay (IFNγ-stimulated A549 cells, AlphaLISA). To be noted: Homo sapiens, A549, A549 cells, phospho-STAT1 after IFNγ stimulation. The essentials: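 A549 cells given serial compound dilutions for 1 h at 37 °C, then stimulated with IFNγ at 10 ng/mL final for 30 min. Lysate STAT1 Ser727 phosphorylation measured by AlphaLISA; % inhibition vs stimulated/unstimulated DMSO controls, IC50 by nonlinear regression.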
A general note: Alpha assays give light when donor and acceptor beads are brought close together.

Assay [2] has as its system CDK8 (TCF/LEF luciferase reporter in HCT116 cells). Description: Cell based TCF/LEF reporter assay (HCT116+TCF/LEF luciferase). The conditions noted are these: Homo sapiens, HCT-116, 24 h. The essentials: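 Luciferase readout was corrected for viability (CellTiter-Fluor) and scaled between DMSO high and 10 uM CCT251545 low controls, giving IC50 by nonlinear regression. Compounds, serially diluted, were incubated 24 h at 37 °C on HCT116 clones stably expressing a TCF/LEF-driven luciferase reporter.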

What is called IC50 is the point on the concentration scale where inhibition reaches its midpoint. A high value points to lower potency. Consider `Cc1noc(-c2ccc(-c3cnn4cccc(N5CCC(C#N)CC5)c34)cc2)n1` [Compound P-0366, 1-(3-(4-(3-methyl-1,2,4-oxadiazol-5-yl)phenyl)pyrazolo[1,5-a]pyridin-4-yl)piperidine-4-carbonitrile], for which the IC50 in assay [1] and in assay [2] was 0.0001 to 0.1 µM throughout.

As to `Cn1cc(C#Cc2cnc3cccc(N4CCC5(CC4)NCNC5=O)n23)cn1` [Compound P-0275, 8-(3-((1-methyl-1H-pyrazol-4-yl)ethynyl)imidazo[1,2-a]pyridin-5-yl)-1,3,8-triazaspiro[4.5]decan-4-one], the half-inhibitory concentration (IC50) in assay [1] and in assay [2] was 0.1 to 1 µM each time.

`CC(C)(O)Cn1cc(-c2ccc(-c3cnn4ccnc(C5=CCC(C#N)CC5)c34)cc2Cl)cn1` (centres unmarked) [Compound P-0042, 4-(3-(3-chloro-4-(1-(2-hydroxy-2-methylpropyl)-1H-pyrazol-4-yl)phenyl)pyrazolo[1,5-a]pyrazin-4-yl)cyclohex-3-ene-1-carbonitrile]: the IC50 in assay [1] and in assay [2] was 0.0001 to 0.1 µM throughout.

Take `N#CC1CC=C(c2cccn3ncc(-c4ccc5cccnc5c4)c23)CC1` (centres unmarked) [Compound P-0124, 4-(3-(quinolin-7-yl)pyrazolo[1,5-a]pyridin-4-yl)cyclohex-3-ene-1-carbonitrile]: the IC50 was in the range of 0.0001 to 0.1 µM in assay [1] and 0.1 to 1 µM in assay [2].

Consider `Cc1nn(C)cc1-c1ccc(-c2cnn3cccc(C#CC(C)(C)O)c23)cc1` [Compound P-0311, 4-(3-(4-(1,3-dimethyl-1H-pyrazol-4-yl)phenyl)pyrazolo[1,5-a]pyridin-4-yl)-2-methylbut-3-yn-2-ol], for which the figures for the 50% inhibitory concentration (IC50) in assay [1] and in assay [2] were 0.0001 to 0.1 µM and 0.1 to 1 µM, respectively.

As to `N#CC1CC=C(c2cccn3ncc(-c4ccc5cncnc5c4)c23)CC1` (centres unmarked) [Compound P-0119, 4-(3-(quinazolin-7-yl)pyrazolo[1,5-a]pyridin-4-yl)cyclohex-3-ene-1-carbonitrile], the IC50 in assay [1] was 0.0001 to 0.1 µM; in assay [2] it was 0.1 to 1 µM.

For the compound `CC(C)(O)Cn1cc2cc(-c3cnc4[nH]ccc4c3C3=CCC(C#N)CC3)ccc2n1` (centres unmarked) [Compound P-0112, 4-(5-(2-(2-hydroxy-2-methylpropyl)-2H-indazol-5-yl)-1H-pyrrolo[2,3-b]pyridin-4-yl)cyclohex-3-ene-1-carbonitrile], the half-inhibitory concentration (IC50) in assay [1] was 0.0001 to 0.1 µM; in assay [2], 0.1 to 1 µM.

In the case of `Cc1cc(C#N)cc(-c2ccc(-c3cnn4cccc(C#CC(C)(C)O)c34)cc2)c1` [Compound P-0235, 4′-(4-(3-hydroxy-3-methylbut-1-yn-1-yl)pyrazolo[1,5-a]pyridin-3-yl)-5-methyl-[1,1′-biphenyl]-3-carbonitrile], the IC50 in assay [1] and in assay [2] was 0.1 to 1 µM each time.

For the compound `CC(C)(O)Cn1cc(-c2ccc(-c3cnn4ccnc(C5=CCC(C#N)CC5)c34)cc2F)cn1` (centres unmarked) [Compound P-0163, 4-(3-(3-fluoro-4-(1-(2-hydroxy-2-methylpropyl)-1H-pyrazol-4-yl)phenyl)pyrazolo[1,5-a]pyrazin-4-yl)cyclohex-3-ene-1-carbonitrile], the IC50 in assay [1] and in assay [2] was 0.0001 to 0.1 µM each time.

In the case of `CC(C)(C#Cc1cccn2ncc(-c3ccc(-c4cnn(CCF)c4)cc3)c12)C(N)=O` [Compound P-0466, 4-(3-(4-(1-(2-fluoroethyl)-1H-pyrazol-4-yl)phenyl)pyrazolo[1,5-a]pyridin-4-yl)-2,2-dimethylbut-3-ynamide], the IC50 in assay [1] and in assay [2] was 0.0001 to 0.1 µM each time.

With `FC(F)n1cc(-c2ccc(-c3cnc4cccc(OC5COC5)n34)cc2)cn1` [Compound P-0284, 3-(4-(1-(difluoromethyl)-1H-pyrazol-4-yl)phenyl)-5-(oxetan-3-yloxy)imidazo[1,2-a]pyridine], the half-maximal inhibitory concentration (IC50) in assay [1] and in assay [2] was 1 to 10 µM in each case.

Turning to `CS(=O)(=O)Cn1cc(-c2ccc(-c3cnn4ccnc(C5CCC(C#N)CC5)c34)cc2)cn1` (centres unmarked) [Compound P-0023, (1s,4s)-4-(3-(4-(1-((methylsulfonyl)methyl)-1H-pyrazol-4-yl)phenyl)pyrazolo[1,5-a]pyrazin-4-yl)cyclohexane-1-carbonitrile], the IC50 in assay [1] and in assay [2] was 0.0001 to 0.1 µM in each case.

Regarding `CCn1cc(-c2ccc(-c3cnn4cccc(C#CC(C)(C)O)c34)cc2)cn1` [Compound P-0232, 4-(3-(4-(1-ethyl-1H-pyrazol-4-yl)phenyl)pyrazolo[1,5-a]pyridin-4-yl)-2-methylbut-3-yn-2-ol], the IC50 in assay [1] and in assay [2] was 0.0001 to 0.1 µM throughout.

Turning to `Cc1ccc2cc(-c3cnn4cccc(C5CCC(C#N)CC5)c34)ccc2n1` (centres unmarked) [Compound P-0194, 4-(3-(2-methylquinolin-6-yl)pyrazolo[1,5-a]pyridin-4-yl)cyclohexane-1-carbonitrile], the 50% inhibitory concentration (IC50) in assay [1] and in assay [2] was 0.0001 to 0.1 µM in each case.

In the case of `Cn1cc(-c2ccc(-c3cnn4cccc(C#CC(C)(C)C(N)=O)c34)cc2)cn1` [Compound P-0295, 2,2-dimethyl-4-(3-(4-(1-methyl-1H-pyrazol-4-yl)phenyl)pyrazolo[1,5-a]pyridin-4-yl)but-3-ynamide], the concentration for half-maximal inhibition (IC50) in assay [1] and in assay [2] was 0.0001 to 0.1 µM in each case.

As for `Cn1cc(-c2ccc(-c3cnn4ccnc(C5=CCC(C#N)CC5)c34)cc2)cn1` (centres unmarked) [Compound P-0323, 4-(3-(4-(1-methyl-1H-pyrazol-4-yl)phenyl)pyrazolo[1,5-a]pyrazin-4-yl)cyclohex-3-ene-1-carbonitrile], the IC50 in assay [1] and in assay [2] was 0.0001 to 0.1 µM throughout.

For the compound `Cn1cc(-c2ccc(-c3cnn4cccc(C5=CCC(C(=O)N6CCC6)CC5)c34)cc2)cn1` (centres unmarked) [Compound P-0333, azetidin-1-yl-[4-[3-[4-(1-methylpyrazol-4-yl)phenyl]pyrazolo[1,5-a]pyridin-4-yl]cyclohex-3-en-1-yl]methanone], the half-maximal inhibitory concentration (IC50) in assay [1] and in assay [2] was 0.1 to 1 µM in each case.

In the case of `COc1ccc(-c2cnn3ccnc(C4=CCC(C#N)CC4)c23)cn1` (centres unmarked) [Compound P-0087, 4-(3-(6-methoxypyridin-3-yl)pyrazolo[1,5-a]pyrazin-4-yl)cyclohex-3-ene-1-carbonitrile], the concentration for half-maximal inhibition (IC50) in assay [1] and in assay [2] was 0.1 to 1 µM each time.

For the compound `N#CCCn1cc(-c2ccc(-c3cnn4ccnc(C5=CCC(C#N)CC5)c34)cc2)cn1` (centres unmarked) [Compound P-0100, 4-(3-(4-(1-(2-cyanoethyl)-1H-pyrazol-4-yl)phenyl)pyrazolo[1,5-a]pyrazin-4-yl)cyclohex-3-ene-1-carbonitrile], the IC50 in assay [1] and in assay [2] was 0.0001 to 0.1 µM each time.

With `CC(C)(C#Cc1cccn2ncc(-c3ccc4c(cnn4C(F)F)c3)c12)C(=O)O` [Compound P-0067, 4-(3-(1-(difluoromethyl)-1H-indazol-5-yl)pyrazolo[1,5-a]pyridin-4-yl)-2,2-dimethylbut-3-ynoic acid], the IC50 in assay [1] lay in the range of 0.1 to 1 µM; in assay [2], 0.0001 to 0.1 µM.

Take `CC(C)(C#Cc1cccn2ncc(-c3ccc(-c4cnn(CC(F)(F)F)c4)cc3)c12)C(N)=O` [Compound P-0468, 2,2-dimethyl-4-(3-(4-(1-(2,2,2-trifluoroethyl)-1H-pyrazol-4-yl)phenyl)pyrazolo[1,5-a]pyridin-4-yl)but-3-ynamide]: the IC50 in assay [1] and in assay [2] was 0.0001 to 0.1 µM throughout.

For `Cn1cc(-c2ccc(-c3cnn4cccc(N5C6CCC5CC(C#N)C6)c34)cc2)cn1` (centres unmarked) [Compound P-0248, 8-(3-(4-(1-methyl-1H-pyrazol-4-yl)phenyl)pyrazolo[1,5-a]pyridin-4-yl)-8-azabicyclo[3.2.1]octane-3-carbonitrile], the IC50 in assay [1] and in assay [2] was 0.0001 to 0.1 µM in each case.
